PubChem BioAssay (NCI)
Several values for one entry are separate records, joined by “and”; a condition that tells them apart may be missing. Equal entries are not always repeated.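 Method: 48-hour compound exposure of cells in 96-well plates, five concentrations, linear interpolation of endpoints. The concentration for 50% growth inhibition is given as GI50. The concentration for full growth arrest is given as TGI.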

Key:
Test in all cases: NCI tumour cell line growth inhibition, 48 h
HCC-2998 colon = system: HCC-2998 colon
KM12 colon = system: KM12 colon
UACC-257 melanoma = system: UACC-257 melanoma
SNB-19 CNS = system: SNB-19 CNS
786-0 renal = system: 786-0 renal
SK-OV-3 ovarian = system: SK-OV-3 ovarian
A498 renal = system: A498 renal
MDA-MB-231 breast = system: MDA-MB-231 breast
EKVX NSCLC = system: EKVX NSCLC
BT-549 breast = system: BT-549 breast

Row | SMILES | GI50 (HCC-2998 colon) | TGI (HCC-2998 colon) | GI50 (KM12 colon) | TGI (KM12 colon) | GI50 (UACC-257 melanoma) | TGI (UACC-257 melanoma) | GI50 (SNB-19 CNS) | TGI (SNB-19 CNS) | GI50 (786-0 renal) | TGI (786-0 renal) | GI50 (SK-OV-3 ovarian) | TGI (SK-OV-3 ovarian) | GI50 (A498 renal) | TGI (A498 renal) | GI50 (MDA-MB-231 breast) | TGI (MDA-MB-231 breast) | GI50 (EKVX NSCLC) | TGI (EKVX NSCLC) | GI50 (BT-549 breast) | TGI (BT-549 breast)
1 | CN(C)c1ncnc2c1ccn2C1OC(CO)C(O)C1O (stereo unspecified) | 1.89 µM | 18.1 µM | 34.9 µM | > 100 µM | > 100 µM | > 100 µM | 44.5 µM | > 100 µM | 3.98 µM | 97.8 µM | 0.884 µM | 21.4 µM | 3.49 µM | > 100 µM | 1.82 µM | 5.96 µM | 3.98 µM | > 92.3 µM | 3.98 µM | > 100 µM
2 | CCc1nc(N)nc(N)c1C#CC(C)c1cc(-c2ccnc(C)c2)c2oc(C)nc2c1 (stereo unspecified) | 0.0206 µM | 5.95 µM | 0.0201 µM | 10.9 µM |  | 13.2 µM | < 0.0114 µM | 12.1 µM | < 0.01 µM | 5.54 µM | 0.113 µM | 8.53 µM | 0.117 µM | 4.89 µM | 0.527 µM | 16.9 µM | 0.451 µM | 15 µM | 1.03 µM | 8.31 µM
3 | c1ccc2c(CN3CCC(C4CCN(Cc5cccc6ccccc56)CC4)CC3)cccc2c1 |  | 2.97 µM and 5.61 µM | 10.7 µM and 33.5 µM | 33.7 µM and > 100 µM |  | 4.25 µM and 11.9 µM | 40.1 µM and > 100 µM | > 100 µM |  | 32.2 µM and 34.5 µM |  | 75.2 µM and > 100 µM | 7.34 µM | > 72.8 µM and 86 µM |  | > 74.1 µM | 35.1 µM and > 91.4 µM | > 100 µM |  | > 100 µM
4 | COc1cc(NC(=O)c2cc(O)c(C/C=C(\C)CCC=C(C)C)c(O)c2)cc2c1O[C@]1(C)CC[C@@H](O)C(C)(C)[C@H]1C2 | 2.21 µM | 7.22 µM | 1.63 µM | 4.44 µM | 2.82 µM | 14.3 µM | 1.36 µM | 4.46 µM | 0.604 µM | 6.44 µM | 1.79 µM | 12.9 µM | 0.963 µM | 7.9 µM | 1.11 µM | 5.04 µM | 2.25 µM | 11.4 µM | 0.841 µM | 3.55 µM
5 | COc1ccc(OC)c(/C=N/N=C2\C(=O)Nc3c(Cl)cc(Cl)cc32)c1 |  | > 100 µM |  | > 100 µM |  | > 100 µM |  | > 100 µM |  | > 100 µM |  | > 100 µM |  | > 100 µM |  | > 100 µM |  | > 100 µM |  | 72.5 µM
6 | Nc1nc(Cl)nc2c1ncn2[C@@H]1O[C@H](COS(N)(=O)=O)[C@@H](O)[C@H]1O | 0.0191 µM and 0.0226 µM | 0.0382 µM and 0.0498 µM | 0.0232 µM and 0.0321 µM | 0.0707 µM and 0.166 µM | 0.0233 µM and 0.0242 µM | 0.0694 µM and 0.0685 µM | 0.00365 µM | 0.0323 µM and 0.0465 µM | 0.0214 µM and 0.0266 µM | 0.0556 µM and 0.0741 µM | 0.0248 µM and 0.026 µM | 0.0739 µM and 0.0666 µM | 0.00943 µM and 0.0148 µM | 0.0254 µM and 0.0309 µM | 0.00481 µM | 0.0294 µM and 0.0262 µM | 0.0232 µM and 0.0301 µM | 0.0688 µM and 0.167 µM | 0.009 µM and 0.0243 µM | 0.0646 µM and 0.0713 µM
7 | COc1cc2c(cc1OCCCCCn1c3ccccc3c3ccccc31)N=C[C@@H]1CCCN1C2=O | 1.71 µM | 3.18 µM | 1.96 µM | 3.74 µM | 2.29 µM | 5.85 µM | 2.05 µM | 4.04 µM | 1.73 µM | 3.2 µM | 4.57 µM | 16.8 µM | 1.77 µM | 3.69 µM | 1.73 µM | 3.69 µM | 5.27 µM | 18.7 µM | 2.03 µM | 4.31 µM
8 | NS(=O)(=O)c1ccc(N2N=C(c3cccs3)CC2c2ccccc2O)cc1 (stereo unspecified) | 1.33 µM | 5.12 µM | 0.809 µM | 1.94 µM | 1.47 µM | 7.97 µM | 1.23 µM | 11 µM | 1.84 µM | 8.45 µM | 1.18 µM | 10.1 µM | 0.835 µM | 4.01 µM | 0.972 µM | 3.19 µM |  |  | 2.05 µM | 9.15 µM
9 | Nc1cc(-c2ccccc2)n(C(=O)Nc2ccc(Oc3ccccc3)cc2)n1 | > 100 µM | > 100 µM | > 100 µM | > 100 µM | 84.5 µM | > 100 µM | 91.5 µM | > 100 µM | 29.5 µM | > 100 µM | 68.9 µM | > 100 µM | > 100 µM | > 100 µM | 27.3 µM | > 100 µM | > 100 µM | > 100 µM | 86.2 µM | > 100 µM
10 | Cc1cn(Cc2ccccc2CCl)c(=O)n(Cc2ccccc2CCl)c1=O | 1.5 µM | 2.95 µM | 1.99 µM | 4.48 µM | 2.25 µM | 4.86 µM | 2.57 µM | 6.66 µM | 1.67 µM | 3.39 µM | 3.27 µM | 9.62 µM | 10.6 µM | 27.4 µM | 1.86 µM | 3.57 µM | 2.26 µM | 5.13 µM | 1.85 µM | 3.52 µM
11 | Cc1c(C(N)=O)sc2c1c(=O)n(Cc1ccccc1)c1nnc(S(=O)(=O)CC(=O)Nc3ccc(Cl)cc3)n21 | 18.7 µM | > 100 µM | 4.54 µM | 16.2 µM | 2.68 µM | 7.88 µM | 7.7 µM | 23.3 µM | 3.07 µM | 12.2 µM | 3.24 µM | 7.81 µM | 1.26 µM | 4.21 µM | 4.24 µM | 18.5 µM | 5.89 µM | 27.4 µM | 2.92 µM | 14.9 µM
12 | Cn1c2ccccc2c2[nH]c3ccccc3c(=O)c21 |  | > 100 µM |  | > 100 µM |  | > 100 µM |  | > 100 µM |  | > 100 µM |  | > 100 µM |  | > 100 µM |  | > 100 µM |  | > 100 µM |  | > 100 µM
13 | O=C1c2ccn(CCCCN(CCO)CCO)c2C(=O)c2c1c(O)c1ccccc1c2O | 3.55 µM | 14.2 µM | 1.75 µM | 3.59 µM | 4.83 µM | 24.4 µM | 20.2 µM | > 100 µM | 5.39 µM | > 48.4 µM | 7.74 µM | > 43.3 µM | 13.4 µM | 39.7 µM | 1.89 µM | 3.97 µM | 23.3 µM | > 75.7 µM | 20.7 µM | 60.9 µM
